Experimental data from paper PMC11845477, “Exploring the principles behind antibiotics with limited resistance” (Nature Communications, 2025).
Where a SMILES comes first, the peptide text is derived from it. Bridges are numbered along the chain shown (N, C = ends). [ ]: non-standard residue; d: D form. The star is where a group is joined. X1 = NC[C@@H](CC(=O)*)c1cccc(Cl)c1; X2 = CC[C@H](C)CCCCC(=O)*; Dab = NCC[C@H](N)C(=O)O; Dap = NC[C@H](N)C(=O)O

Columns and labels:
[1] = test system: E. coli BW25113: pUCacrAB; experiment: AcrAB-TolC efflux overexpression screen, relative MIC; type: cell-based, Escherichia coli; conditions: pUCacrAB vs empty pUC118 control
Protocol: (§1) Fig. 6 The impact of AcrAB-TolC activity on antibiotic susceptibility. E. coli strains with AcrAB-TolC depletion (BW25113-ΔacrB) and overexpression (BW25113: pUCacrAB) were treated with various antibiotics, and the level of resistance was determined as minimum inhibitory concentration (MIC) relative to a wild-type strain, presented on a logarithmic scale (log2). Each bar represents the mean resistance level (susceptibility, i.e., level of resistance < 0; and resistance, i.e., level of resistance > 0) to antibiotics induced by acrAB overexpression (blue bars; E. coli with a multicopy plasmid of the acrAB genes (pUCacrAB)) and acrB deletion (red bars; mutant E. coli with acrB gene deletion (ΔacrB)) compared to the wild-type. Data are presented as mean values of 3 biological replicates ± SD. […] Detailed information on antibiotic and bacterial strain abbreviations is provided in Supplementary Data 1. Source data are provided as a Source Data file. For information on mode of action groups, refer to Table 1.
(§2) For the efflux deficiency screen, the ΔacrB mutant of E. coli K12 BW25113[86] and its equivalent wild-type control strain with intact gene were utilized. In contrast, BW25113 carrying a multicopy acrAB plasmid (pUCacrAB)[87] and its control strain harboring an empty pUC118 plasmid were used to overexpress the acrAB efflux system. According to established protocols via P1 transduction, the suitable acrB deletion mutant (ΔacrB BW25113) was created, while the pUCacrAB plasmid was kindly provided by Kunihiko Nishino and Akihito Yamaguchi (Osaka University, Osaka, Japan). In a prior study, both strains were employed. Since the copy number of the plasmid carrying the efflux pump is controlled by native promoters, external induction is unnecessary.
(§3) Antibiotic susceptibilities of these strains were evaluated using a modified version of the standard broth dilution method. In 96-well microtiter plates containing fresh MHB medium, or supplemented MS medium in case of SCH79797, ten-step serial dilutions of an antibiotic from a stock solution were made (2 wells per antibiotic concentration per strain). The two wells contained only supplemented media without any antibiotics […]. Strains were incubated overnight at 37 °C with continuous agitation. Additionally, plasmid containing strains were grown in the presence of 100 µg/mL ampicillin. The culture was diluted to yield a cell suspension with 5 ×10^5 cells/mL and then inoculated into the wells of the microtiter plate. To determine the medium’s background OD value, the first column of the 96-well plate contained solely MHB without inoculum. Prior to the measurement, the plates were incubated at 37 °C with continuous shaking at 900 rpm with 3 mm throw. OD600 values were determined in a microplate reader after 18 hours of incubation (Biotek Synergy 2). The minimum inhibitory concentration (MIC) was determined as the lowest concentration of antibiotic at which the OD600 values were less than 0.05 after subtracting the background value. The log2 of the relative MIC was computed using the following equation:2 log2relativeMICpUCacrAB=MICpUCacrAB/MICpUC118 3 log2relativeMICΔacrB=MICΔacrB/MICwt

[2] = test system: A. baumannii ATCC 17978 (SEN) and A. baumannii ATCC BAA-1605 (MDR); experiment: microbe, parasite or virus in culture; type: cell-based, Acinetobacter baumannii; conditions: for MIC: across three biological replicates
Protocol: This study focused on multiple bacterial strains, as follows. For the FoR and ALE experiments, 2 strains per species were chosen: E. coli ATCC 25922, K. pneumoniae ATCC 10031, A. baumannii ATCC 17978, and P. aeruginosa ATCC BAA-3107 as sensitive (SEN) strains, and E. coli NCTC13846, K. pneumoniae ATCC 700603, A. baumannii ATCC BAA-1605 and P. aeruginosa LESB58 as multi-drug resistant (MDR) strains. Functional metagenomic screens were performed with E. coli ATCC 25922 and K. pneumoniae ATCC 10031 strains. To determine the dose-kill properties of the different antibiotics, an E. coli strain (ATCC 25922) expressing a yellow fluorescent protein (pZS2R, YFP, CHL^R) and a red fluorescent protein (pZS2R, mCherry, CHL^R) was used.
Unless otherwise indicated, cation-adjusted Mueller-Hinton Broth 2 (MHB, Millipore) medium was used throughout the study, except for SCH79797 (SCH).
A robotic liquid handling system was used to automatically prepare a 11 to 16-step serial dilution in 384-well microtiter plates (Greiner). A final concentration of 5 × 10^5 bacterial cells per mL were inoculated into each well containing 60 µL MHB medium. Bacterial cultures were incubated at 37 °C with continuous shaking (Infors shaker, 900 rpm with 3 mm throw) for 18 hours (2 replicates from each). Cell growth was monitored by measuring the optical density (OD600 values, using Biotek Synergy microplate reader). MIC was defined as the antibiotic concentration of complete growth inhibition (i.e., OD600 < 0.05). Relative MIC was calculated as follows:1 relativeMIC=MICevolved/MICancestor

E. coli BW25113-ΔacrB = experiment: AcrAB-TolC efflux deficiency screen, relative MIC; type: cell-based, Escherichia coli; conditions: ΔacrB vs wild-type
Protocol: as §1, §2, §3

[3] = AB-SEN, Acinetobacter baumannii ATCC 17978, ancestor strain
[4] = Acinetobacter baumannii ATCC 17978 (AB-SEN), ancestor strain, sheet fig 2a
[5] = Acinetobacter baumannii, Acinetobacter baumannii ATCC 17978 (AB-SEN)
[6] = Acinetobacter baumannii, Acinetobacter baumannii ATCC BAA-1605 (AB-MDR)
[7] = Acinetobacter baumannii ATCC 17978 (AB-SEN), ancestor strain
[8] = Acinetobacter baumannii ATCC 17978 (AB-SEN)
[9] = Acinetobacter baumannii ATCC BAA-1605 (AB-MDR)
[10] = Acinetobacter baumannii ATCC BAA 1605 (AB-MDR), ancestor strain, sheet fig 2a
[11] = ancestor AB-SEN (Acinetobacter baumannii ATCC 17978)

Molecule	Relative MIC (log2) ([1]; replicate 1)	Relative MIC (log2) ([1]; replicate 2)	Relative MIC (log2) ([1]; replicate 3)	MIC of ancestor [2, 3]	MIC of ancestor [2, 4]	MIC [2, 5]	MIC [2, 6]	Relative MIC (log2) (E. coli BW25113-ΔacrB; replicate 1)	Relative MIC (log2) (E. coli BW25113-ΔacrB; replicate 2)	Relative MIC (log2) (E. coli BW25113-ΔacrB; replicate 3)	MIC of ancestor [2, 7]	MIC of ancestor ([2]; Acinetobacter baumannii ATCC 17978 (AB-SEN), ancestor)	MIC [2, 8]	MIC [2, 9]	MIC of ancestor [2, 10]	MIC of ancestor ([2]; ancestor AB-MDR (Acinetobacter baumannii ATCC BAA 1605))	MIC of ancestor [2, 11]	MIC of ancestor ([2]; A. baumannii ATCC 17978 (AB-SEN), ancestor strain)	MIC of ancestor ([2]; A. baumannii ATCC BAA 1605 (AB-MDR), ancestor strain)	MIC of ancestor ([2]; Acinetobacter baumannii ATCC BAA 1605 (AB-MDR), ancestor)
CNC(C)C1CCC(N)C(OC2C(N)CC(N)C(OC3OCC(C)(O)C(NC)C3O)C2O)O1 (stereo not drawn) [Gentamicin]	0	0	0	0.5 µg/mL	0.5 µg/mL	0.5 µg/mL	> 32 µg/mL	0	0	0	–	–	–	–	–	–	–	–	–	–
CN[C@@H]1[C@@H](O[C@H]2O[C@H](CO)[C@@H](N)[C@H](O)[C@H]2O)OC2C[C@@H](N)[C@@H](O[C@H]3[C@H](O)[C@@H](O)[C@H](N)C[C@@H]3N)OC2[C@@H]1O (stereo partly drawn) [Apramycin]	0	0	0	–	4 µg/mL	4 µg/mL	8 µg/mL	1	1	1	4 µg/mL	–	–	–	–	–	–	–	–	–
Nc1nc(-n2cc(C(=O)O)c(=O)c3cc(F)c(N4CC(O)C4)c(Cl)c32)c(F)cc1F [Delafloxacin]	2	2	2	–	0.0625 µg/mL	0.0625 µg/mL	8 µg/mL	-4	-4	-4	0.0625 µg/mL	–	–	–	–	–	–	–	–	–
CN(C)c1cc(CNCC(C)(C)C)c(O)c2c1C[C@H]1C[C@H]3[C@H](N(C)C)C(O)=C(C(N)=O)C(=O)[C@@]3(O)C(O)=C1C2=O [Omadacycline]	0.585	0.585	0.585	–	0.5 µg/mL	0.5 µg/mL	16 µg/mL	-2.34	-2.34	-2.34	–	0.5 µg/mL	–	–	–	–	–	–	–	–
POL7306	–	–	–	–	–	–	–	–	–	–	–	–	1 µg/mL	1 µg/mL	–	–	–	–	–	–
C[C@H]1c2cccc(O)c2C(=O)C2=C(O)[C@]3(O)C(=O)C(C(N)=O)=C(O)[C@@H](N(C)C)[C@@H]3[C@@H](O)[C@@H]21 [Doxycycline]	0	0	0	–	0.25 µg/mL	0.25 µg/mL	8 µg/mL	-2.34	-2.34	-2.34	0.25 µg/mL	–	–	–	–	–	–	–	–	–
CC(C)c1ccc(Cn2ccc3c4c(N)nc(NC5CC5)nc4ccc32)cc1 [SCH79797]	1	1	1	–	4 µg/mL	–	–	-1	-1	-1	–	–	4 µg/mL	4 µg/mL	4 µg/mL	4 µg/mL	4 µg/mL	–	–	–
COc1c(N2C[C@@H]3CCCN[C@@H]3C2)c(F)cc2c(=O)c(C(=O)O)cn(C3CC3)c12 [Moxifloxacin]	–	–	–	–	–	–	32 µg/mL	–	–	–	–	–	–	–	–	–	–	–	–	–
CC(C)C[C@@H]1NC(=O)[C@@H](Cc2ccccc2)NC(=O)[C@H](CCN)NC(=O)[C@@H](NC(=O)[C@H](CN)NC(=O)[C@@H](NC(=O)C[C@H](CN)c2cccc(Cl)c2)[C@@H](C)O)CCNC(=O)[C@H]([C@@H](C)O)NC(=O)[C@H](CCN)NC(=O)[C@H](CCN)NC1=O [SPR206] (X1-T[Dap][Dab][Dab][dF]L[Dab][Dab]T; lactam 3-C (inferred); N-terminus assumed)	0	0	0	–	0.125 µg/mL	–	–	0	0	0	–	–	0.125 µg/mL	0.125 µg/mL	0.125 µg/mL	–	0.125 µg/mL	0.125 µg/mL	0.125 µg/mL	–
CC[C@H](C)CCCCC(=O)N[C@@H](CCN)C(=O)N[C@H](C(=O)N[C@@H](CCN)C(=O)N[C@H]1CCNC(=O)[C@H]([C@@H](C)O)NC(=O)[C@H](CCN)NC(=O)[C@H](CCN)NC(=O)[C@H](CC(C)C)NC(=O)[C@@H](Cc2ccccc2)NC(=O)[C@H](CCN)NC1=O)[C@@H](C)O [Polymyxin B] (X2-[Dab]T[Dab][Dab][Dab][dF]L[Dab][Dab]T; lactam 4-C (inferred); N-terminus assumed)	0	0	0	–	–	–	–	0	0	0	–	–	1 µg/mL	1 µg/mL	–	–	–	–	–	–
C[C@@H]1CN2c3c(cc4c(N5C(=O)OC[C@@H]5C)noc4c3F)CC3(C(=O)NC(=O)NC3=O)[C@H]2[C@H](C)O1 [Zoliflodacin]	2	2	2	–	–	8 µg/mL	16 µg/mL	-4	-4	-4	–	–	–	–	–	–	–	–	–	–
C[C@@H](O)[C@H]1C(=O)N2C(C(=O)O)=C(S[C@@H]3CN[C@H](C(=O)N(C)C)C3)[C@H](C)[C@H]12 [Meropenem]	–	–	–	1 µg/mL	1 µg/mL	1 µg/mL	> 32 µg/mL	–	–	–	–	–	–	–	–	–	–	–	–	–
Tridecaptin M152-P3	–	–	–	–	–	–	–	–	–	–	–	–	8 µg/mL	8 µg/mL	–	–	–	–	–	–
polymyxin-B	–	–	–	–	1 µg/mL	–	–	–	–	–	–	–	–	–	1 µg/mL	–	1 µg/mL	–	–	1 µg/mL
C[C@@H](O)[C@H]1C(=O)N2C(C(=O)O)=C(S[C@H]3CC[S@@+]([O-])C3)S[C@H]12 [Sulopenem]	0	0	0	–	1 µg/mL	–	–	0.585	0.585	0.585	–	–	1 µg/mL	32 µg/mL	–	–	1 µg/mL	–	–	–
